Experimental data as given in ChEMBL document CHEMBL4190187, “Discovery of pyrazolopyrimidine derivatives as novel inhibitors of ataxia telangiectasia and rad3 related protein (ATR)” (Bioorg Med Chem Lett, 2017).
Values joined by “and” are separate entries in the source; they are usually repeats but may differ in a detail not shown here. Equal values may be shown once. Each block holds one compound with its values, some of them ahead of it.

Tests used:
[1] = target: Serine/threonine-protein kinase ATR (Homo sapiens, UniProt Q13535); assay: Inhibition of human recombinant FLAG-tagged full length ATR expressed in mammalian cell line co-expressing human recombinant cMyc-tagged full length ATRIP
[2] = Metabolic stability in human liver microsomes assessed as compound remaining at 1 uM in presence of NADPH as cofactor measured after 30 mins by LC-MS/MS method; format: ADME, microsome; conditions: read-out: Stability
[3] = Metabolic stability in rat liver microsomes assessed as compound remaining at 1 uM in presence of NADPH as cofactor measured after 30 mins by LC-MS/MS method; format: ADME, microsome; conditions: read-out: Stability
[4] = Metabolic stability in mouse liver microsomes assessed as compound remaining at 1 uM in presence of NADPH as cofactor measured after 30 mins by LC-MS/MS method; format: ADME, microsome; conditions: read-out: Stability
[5] = target: T1, Tyrosine-protein kinase BTK (Homo sapiens, UniProt Q06187); assay: Inhibition of BTK (unknown origin) at 100 nM
[6] = target: Phosphatidylinositol 4,5-bisphosphate 3-kinase catalytic subunit delta isoform (Homo sapiens) (UniProt O00329); assay: Inhibition of PI3Kdelta (unknown origin) at 100 nM
[7] = target: T1, Tyrosine-protein kinase BTK; assay: Inhibition of BTK (unknown origin)
[8] = target: Phosphatidylinositol 4,5-bisphosphate 3-kinase catalytic subunit delta isoform (Homo sapiens, UniProt O00329); assay: Inhibition of PI3Kdelta (unknown origin)
Chain of Phosphatidylinositol 4,5-bisphosphate 3-kinase catalytic subunit delta isoform (O00329 whole entry, canonical isoform): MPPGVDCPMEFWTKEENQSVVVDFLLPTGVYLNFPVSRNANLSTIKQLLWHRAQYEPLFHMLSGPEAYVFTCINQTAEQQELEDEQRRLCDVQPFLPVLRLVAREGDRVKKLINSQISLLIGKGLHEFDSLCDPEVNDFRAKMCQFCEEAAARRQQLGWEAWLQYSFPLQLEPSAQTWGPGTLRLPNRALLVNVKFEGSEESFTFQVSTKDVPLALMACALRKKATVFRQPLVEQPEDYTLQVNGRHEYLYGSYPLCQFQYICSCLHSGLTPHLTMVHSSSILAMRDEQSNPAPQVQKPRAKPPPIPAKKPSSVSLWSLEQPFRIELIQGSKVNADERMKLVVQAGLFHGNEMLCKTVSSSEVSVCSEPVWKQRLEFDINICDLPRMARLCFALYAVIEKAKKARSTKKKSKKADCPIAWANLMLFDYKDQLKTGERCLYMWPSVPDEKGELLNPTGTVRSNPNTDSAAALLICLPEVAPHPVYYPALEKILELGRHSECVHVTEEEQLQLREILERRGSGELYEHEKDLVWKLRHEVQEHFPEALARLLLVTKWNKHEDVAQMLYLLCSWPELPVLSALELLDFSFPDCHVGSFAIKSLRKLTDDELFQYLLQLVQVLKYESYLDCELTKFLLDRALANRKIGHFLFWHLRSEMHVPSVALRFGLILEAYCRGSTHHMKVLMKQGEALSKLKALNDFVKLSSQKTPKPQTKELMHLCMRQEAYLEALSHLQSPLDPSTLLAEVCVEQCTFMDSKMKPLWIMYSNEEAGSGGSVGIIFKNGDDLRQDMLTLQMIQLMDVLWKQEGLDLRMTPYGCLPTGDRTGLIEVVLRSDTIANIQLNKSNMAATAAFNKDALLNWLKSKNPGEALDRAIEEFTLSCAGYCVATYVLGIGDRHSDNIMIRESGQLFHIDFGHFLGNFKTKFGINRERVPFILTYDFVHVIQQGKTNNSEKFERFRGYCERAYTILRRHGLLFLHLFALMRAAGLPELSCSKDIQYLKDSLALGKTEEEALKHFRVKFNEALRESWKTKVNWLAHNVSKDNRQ

Chain of Serine/threonine-protein kinase ATR (Q13535 whole entry): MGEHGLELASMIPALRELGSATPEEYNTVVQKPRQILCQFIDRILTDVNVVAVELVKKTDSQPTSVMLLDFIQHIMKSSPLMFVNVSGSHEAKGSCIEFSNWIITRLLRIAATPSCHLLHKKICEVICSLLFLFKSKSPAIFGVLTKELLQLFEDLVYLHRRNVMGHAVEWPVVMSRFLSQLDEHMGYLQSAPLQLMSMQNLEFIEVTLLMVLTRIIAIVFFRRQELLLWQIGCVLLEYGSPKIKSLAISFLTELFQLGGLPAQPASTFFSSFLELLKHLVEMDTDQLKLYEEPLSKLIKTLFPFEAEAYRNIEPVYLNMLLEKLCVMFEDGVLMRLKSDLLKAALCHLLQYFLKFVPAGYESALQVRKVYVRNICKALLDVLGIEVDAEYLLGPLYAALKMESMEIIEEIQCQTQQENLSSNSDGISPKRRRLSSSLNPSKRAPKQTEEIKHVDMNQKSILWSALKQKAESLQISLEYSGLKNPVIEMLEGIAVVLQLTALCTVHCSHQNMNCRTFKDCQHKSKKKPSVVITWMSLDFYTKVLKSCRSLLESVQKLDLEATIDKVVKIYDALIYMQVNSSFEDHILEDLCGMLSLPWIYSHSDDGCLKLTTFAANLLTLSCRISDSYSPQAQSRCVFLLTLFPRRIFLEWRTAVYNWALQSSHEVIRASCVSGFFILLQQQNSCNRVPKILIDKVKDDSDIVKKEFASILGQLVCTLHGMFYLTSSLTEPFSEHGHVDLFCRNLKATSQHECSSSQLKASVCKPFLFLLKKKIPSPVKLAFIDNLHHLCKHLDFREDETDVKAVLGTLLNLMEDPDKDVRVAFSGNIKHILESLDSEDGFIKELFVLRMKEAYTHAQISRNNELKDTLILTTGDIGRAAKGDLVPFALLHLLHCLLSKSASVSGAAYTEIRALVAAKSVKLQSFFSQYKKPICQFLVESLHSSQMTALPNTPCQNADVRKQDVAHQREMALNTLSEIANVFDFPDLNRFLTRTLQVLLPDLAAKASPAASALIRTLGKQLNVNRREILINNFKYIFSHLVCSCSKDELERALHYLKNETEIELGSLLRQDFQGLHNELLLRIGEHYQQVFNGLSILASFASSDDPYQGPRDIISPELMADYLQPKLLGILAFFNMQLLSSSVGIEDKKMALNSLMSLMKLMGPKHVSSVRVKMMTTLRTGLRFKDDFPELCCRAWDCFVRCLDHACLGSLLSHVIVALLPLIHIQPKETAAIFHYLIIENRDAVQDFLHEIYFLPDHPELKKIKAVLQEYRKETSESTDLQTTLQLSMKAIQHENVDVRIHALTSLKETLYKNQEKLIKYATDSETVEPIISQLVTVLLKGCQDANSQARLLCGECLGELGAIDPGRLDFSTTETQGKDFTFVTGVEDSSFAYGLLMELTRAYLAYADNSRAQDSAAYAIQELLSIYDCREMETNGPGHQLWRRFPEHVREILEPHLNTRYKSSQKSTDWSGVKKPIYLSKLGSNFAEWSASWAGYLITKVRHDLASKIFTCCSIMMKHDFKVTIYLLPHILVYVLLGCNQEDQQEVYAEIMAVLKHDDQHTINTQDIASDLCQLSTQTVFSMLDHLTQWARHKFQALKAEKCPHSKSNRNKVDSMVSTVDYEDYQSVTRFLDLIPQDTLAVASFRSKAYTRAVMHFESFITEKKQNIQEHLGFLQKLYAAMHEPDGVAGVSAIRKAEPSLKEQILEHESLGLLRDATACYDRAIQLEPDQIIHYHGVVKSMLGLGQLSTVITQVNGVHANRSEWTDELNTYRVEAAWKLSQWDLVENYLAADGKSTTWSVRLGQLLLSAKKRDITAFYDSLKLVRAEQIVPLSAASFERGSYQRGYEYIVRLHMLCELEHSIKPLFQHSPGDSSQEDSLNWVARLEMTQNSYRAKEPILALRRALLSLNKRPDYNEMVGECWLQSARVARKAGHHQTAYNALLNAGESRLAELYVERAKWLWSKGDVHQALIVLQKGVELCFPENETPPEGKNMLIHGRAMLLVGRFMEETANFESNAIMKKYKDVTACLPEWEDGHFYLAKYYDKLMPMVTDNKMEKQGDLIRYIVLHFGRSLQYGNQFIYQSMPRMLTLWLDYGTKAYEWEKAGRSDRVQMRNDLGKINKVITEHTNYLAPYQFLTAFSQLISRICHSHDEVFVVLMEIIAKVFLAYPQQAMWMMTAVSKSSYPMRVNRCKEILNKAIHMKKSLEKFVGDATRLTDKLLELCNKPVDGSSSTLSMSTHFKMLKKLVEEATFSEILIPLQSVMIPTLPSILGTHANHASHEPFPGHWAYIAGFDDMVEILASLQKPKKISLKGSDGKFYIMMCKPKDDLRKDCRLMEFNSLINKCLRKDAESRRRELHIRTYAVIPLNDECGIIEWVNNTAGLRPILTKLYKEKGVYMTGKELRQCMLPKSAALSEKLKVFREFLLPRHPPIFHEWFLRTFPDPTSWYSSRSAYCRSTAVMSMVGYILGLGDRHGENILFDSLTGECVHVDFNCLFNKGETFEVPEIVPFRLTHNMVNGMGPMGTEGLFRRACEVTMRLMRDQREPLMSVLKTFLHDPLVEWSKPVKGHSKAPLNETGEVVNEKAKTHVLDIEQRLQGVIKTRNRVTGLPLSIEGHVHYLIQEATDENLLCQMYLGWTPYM
T1 sequence (Q06187 whole entry, canonical isoform): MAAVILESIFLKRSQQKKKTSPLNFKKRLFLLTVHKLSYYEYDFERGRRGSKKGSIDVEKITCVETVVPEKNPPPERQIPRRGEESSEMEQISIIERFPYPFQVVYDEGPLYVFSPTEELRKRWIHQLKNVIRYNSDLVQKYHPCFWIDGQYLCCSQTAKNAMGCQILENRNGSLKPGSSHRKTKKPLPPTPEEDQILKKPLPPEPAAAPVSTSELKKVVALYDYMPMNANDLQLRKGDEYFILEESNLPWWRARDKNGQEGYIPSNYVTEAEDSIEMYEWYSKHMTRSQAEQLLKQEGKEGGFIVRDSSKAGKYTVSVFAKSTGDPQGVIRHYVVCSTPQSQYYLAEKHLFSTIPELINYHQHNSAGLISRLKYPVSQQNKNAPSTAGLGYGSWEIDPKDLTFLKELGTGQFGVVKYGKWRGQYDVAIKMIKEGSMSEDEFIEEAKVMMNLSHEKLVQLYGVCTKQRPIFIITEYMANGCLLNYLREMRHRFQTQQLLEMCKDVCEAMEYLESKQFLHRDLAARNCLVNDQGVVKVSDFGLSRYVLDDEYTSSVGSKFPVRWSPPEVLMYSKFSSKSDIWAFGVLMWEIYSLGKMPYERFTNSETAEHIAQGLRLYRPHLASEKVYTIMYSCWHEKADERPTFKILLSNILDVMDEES
Chain of Phosphatidylinositol 4,5-bisphosphate 3-kinase catalytic subunit delta isoform (Homo sapiens) (O00329 whole entry, canonical isoform): as the sequence (O00329 whole entry, canonical isoform) above

SMILES: Cn1ccc2cc(-c3nn(C4CCc5ccccc5C4)c4ncnc(N)c34)cnc21 (racemic)
IC50 [1]: 580 nM

SMILES: CNCc1ccc(-c2cc(-c3nc(-c4ccc(S(=O)(=O)C(C)C)cc4)cnc3N)on2)cc1 [BERZOSERTIB]
remaining at 0.5 h, 1 µM [2]: 71%
remaining at 0.5 h, 1 µM [3]: 80%
remaining at 0.5 h, 1 µM [4]: 77%

SMILES: Nc1ncnc2c1c(-c1cnc3[nH]ccc3c1)nn2C1CCc2ccccc2C1 (stereo in doubt; 1')
IC50 [1]: 158 nM

SMILES: Nc1ncnc2c1c(-c1cnc3[nH]ccc3c1)nn2C1CCc2ccccc2C1 (stereo in doubt; 1)
IC50 [1]: 304 nM

SMILES: Nc1ncnc2c1c(-c1cccnc1)nn2C1CCc2ccccc2C1 (racemic)
IC50 [1]: > 30000 nM

SMILES: Nc1ncnc2c1c(-c1cnc3[nH]ccc3c1)nn2C1CCCC1
IC50 [1]: 1420 nM

SMILES: Nc1ncnc2c1c(-c1ccc(Br)c(O)c1)nn2C1Cc2ccccc2C1
IC50 [1]: 3560 nM

SMILES: Nc1ccnc2c1c(-c1cnc3[nH]ccc3c1)nn2C1CCc2ccccc2C1 (racemic)
IC50 [1]: > 30000 nM

SMILES: Nc1ncnc2c1c(-c1ccc(Br)c(O)c1)nn2C1CCc2ccccc21 (configuration not stated)
IC50 [1]: 1860 nM

SMILES: Nc1ccc(-c2nn(C3CCc4ccccc4C3)c3ncnc(N)c23)cn1 (racemic)
IC50 [1]: 19300 nM

SMILES: Nc1ncnc2c1c(-c1cnc3[nH]ccc3c1)nn2C1Cc2ccccc2C1
IC50 [1]: 654 nM

More lines, now with the values ahead:

IC50 [1]: 1320 nM
SMILES: CS(=O)(=O)N1CCC(n2nc(-c3cnc4[nH]ccc4c3)c3c(N)ncnc32)CC1

IC50 [1]: > 30000 nM
SMILES: c1ccc2c(c1)CCC(n1nc(-c3cnc4[nH]ccc4c3)c3cncnc31)C2 (racemic)

IC50 [1]: 4620 nM
SMILES: Nc1ncnc2c1c(-c1cnc3cc[nH]c3c1)nn2C1CCc2ccccc2C1 (racemic)

IC50 [1]: 212 nM
SMILES: Nc1ncnc2c1c(-c1cnc3[nH]ccc3c1)nn2C1CCc2ccccc2C1 (racemic) [listing 1 of 2 here]

IC50 [1]: 22400 nM
SMILES: Nc1ncnc2c1c(-c1cnc3[nH]c(=O)ccc3c1)nn2C1CCc2ccccc2C1 (racemic)

IC50 [1]: 1590 nM
SMILES: Nc1ncnc2c1c(-c1ccc3[nH]ccc3c1)nn2C1CCc2ccccc2C1 (racemic)

IC50 [1]: > 30000 nM
SMILES: Nc1ncnc2c1c(-c1c[nH]c3ncccc13)nn2C1CCc2ccccc2C1 (racemic)

inhibition [5]: 24%
inhibition [6]: 52%
SMILES: Nc1ncnc2c1c(-c1cnc3[nH]ccc3c1)nn2C1CCc2ccccc2C1 (racemic) [listing 2 of 2 here]

IC50 [1]: 19100 nM
SMILES: Nc1ncnc2c1c(-c1ccc(N3CCCC3)nc1)nn2C1CCc2ccccc2C1 (racemic)

IC50 [1]: 547 nM and 269 nM
SMILES: Nc1nc2c(s1)CC(n1nc(-c3cnc4[nH]ccc4c3)c3c(N)ncnc31)CC2 (configuration not stated)

IC50 [7]: 22 nM
IC50 [1]: 2630 nM
IC50 [8]: 307 nM
SMILES: Nc1nc2c(s1)CC(n1nc(-c3cc(F)c4[nH]ccc4c3)c3c(N)ncnc31)CC2 (configuration not stated)
